Source: patent publication US9353141B2, “Galectoside inhibitors of galectins” (GALECTO BIOTECH AB, priority 2012, dated 2016)
Like-named read-outs stand apart in the source and are kept apart here.

Key:
Assay in all cases: Fluorescence polarization-based galectin inhibition assay
Format in all cases: binding
galectin-1 = galectin-1 (Homo sapiens, UniProt P09382); details: 20° C., read-out: Calculated Kd Galectin 1
Source text: (§1) Identification of the substances was made by HRMS (Micromass Q-tof micro) and NMR (Bruker Ultrashield 400 plus, 400 MHz). Chemical shifts are reported downfield from Me4Si using residual […] (7.26 ppm) or CHD2OD (3.35 ppm) as reference. Chemical shifts and coupling constants were obtained from ^1H-NMR and proton resonances were assigned from COSY experiments. Purification was made by RF-HPLC (Beckman, system gold) or flash chromatography, using silica gel (Davisil 35-70 μm, 60 Å). Reactions were followed by TLC (Aluminum sheet, silica gel 60 F254) visualized with UV light, H2SO4 (aq) or an iso-vanillin/H2SO4/EtOH development solution. THF and Et2O were dried over sodium/benzophenone and distilled. CH2Cl2 was dried by molecular sieves (4 Å, 1.6 mm). Other solvents and reagents were commercially available and used without further purifications. Fluorescence polarization experiments were performed on a PolarStar instrument (BMG, Offenburg; Germany). Evaluation of 20-34 as inhibitors of galectins was performed by use of fluorescence polarization as described in the literature (Sorme et al., 2003a, 2004). Galectin concentrations and fluorescent probe choice and concentrations were as described in Cumpstey et al. 2005a, except for galectin-3 for which the probe tdga-probe described in Salomonsson et al. 2010 was used at 20 nM together with galectin-3 at 200 nM concentrations. Each inhibitor was tested in duplicate at several concentrations between 4 and 0.25 μM. All fluorescence polarization experiments were conducted at 20° C., except galectin-7 for which experiments were conducted at 0° C.

galectin-3 = galectin-3 (Homo sapiens, UniProt P17931); details: 20° C., tdga-probe 20 nM, galectin-3 200 nM, read-out: Calculated Kd Galectin 3
Chain of galectin-3 (P17931 whole entry, species assumed): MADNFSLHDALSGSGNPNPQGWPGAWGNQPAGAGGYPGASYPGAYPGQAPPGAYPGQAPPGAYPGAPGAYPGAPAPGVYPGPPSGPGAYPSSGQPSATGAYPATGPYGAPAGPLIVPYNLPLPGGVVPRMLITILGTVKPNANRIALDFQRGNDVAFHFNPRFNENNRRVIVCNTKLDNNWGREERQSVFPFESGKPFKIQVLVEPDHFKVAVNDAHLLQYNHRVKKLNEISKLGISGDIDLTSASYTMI
Source text: as §1

[1] = biological target: T1, galectin-4 (C-terminal domain) (Homo sapiens, UniProt P56470); details: 20° C., read-out: Calculated Kd Galectin 4 (C-terminal domain)
T1 sequence (P56470 194-323 limits assumed): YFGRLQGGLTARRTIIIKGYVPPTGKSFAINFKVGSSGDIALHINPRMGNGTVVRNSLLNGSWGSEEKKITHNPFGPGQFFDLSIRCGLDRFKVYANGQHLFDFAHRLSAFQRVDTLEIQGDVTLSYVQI
Source text: as §1

[2] = biological target: T2, galectin-4 (N-terminal domain) (Homo sapiens, UniProt P56470)
T2 sequence (P56470 19-150 limits assumed): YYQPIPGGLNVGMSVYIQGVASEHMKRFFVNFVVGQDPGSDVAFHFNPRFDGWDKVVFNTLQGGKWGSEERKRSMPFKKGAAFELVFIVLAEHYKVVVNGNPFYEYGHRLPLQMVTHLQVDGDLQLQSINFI
Source text: as §1

galectin-7 = galectin-7 (Homo sapiens, UniProt P47929); details: 0° C., read-out: Calculated Kd Galectin 7
Chain of galectin-7 (P47929 whole entry, species assumed): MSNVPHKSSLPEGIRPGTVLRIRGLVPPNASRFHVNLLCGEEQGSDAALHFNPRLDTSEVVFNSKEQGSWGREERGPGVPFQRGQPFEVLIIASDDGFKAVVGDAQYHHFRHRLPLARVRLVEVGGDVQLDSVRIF
Source text: as §1

[3] = biological target: T3, galectin-8 (N-terminal domain) (Homo sapiens, UniProt O00214); details: 20° C., read-out: Calculated Kd Galectin 8 (N-terminal domain)
T3 sequence (O00214 19-152 limits assumed): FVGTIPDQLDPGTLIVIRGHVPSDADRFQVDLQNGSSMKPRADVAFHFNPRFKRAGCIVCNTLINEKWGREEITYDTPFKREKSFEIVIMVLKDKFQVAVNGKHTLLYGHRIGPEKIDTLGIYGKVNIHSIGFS
Source text: as §1

[4] = biological target: galectin-9 (C-terminal domain) (Homo sapiens, UniProt O00182); details: 20° C., read-out: Calculated Kd Galectin 9 (C-terminal domain)
Chain of galectin-9 (C-terminal domain) (O00182 227-355 limits assumed, species assumed): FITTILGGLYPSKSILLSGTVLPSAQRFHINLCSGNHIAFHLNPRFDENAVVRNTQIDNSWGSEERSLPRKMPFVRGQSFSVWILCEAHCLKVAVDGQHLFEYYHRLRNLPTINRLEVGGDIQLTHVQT
Source text: as §1

[5] = biological target: galectin-9 (N-terminal domain) (Homo sapiens, UniProt O00182); details: 20° C., read-out: Calculated Kd Galectin 9 (N-terminal domain)
Chain of galectin-9 (N-terminal domain) (O00182 17-148 limits assumed, species assumed): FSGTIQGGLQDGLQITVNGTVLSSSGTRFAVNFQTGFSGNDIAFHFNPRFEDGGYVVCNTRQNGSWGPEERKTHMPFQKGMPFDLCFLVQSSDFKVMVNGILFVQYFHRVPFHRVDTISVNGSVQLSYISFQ
Source text: as §1

[6] = fluorescence polarization, 20° C., read-out: Calculated Kd Galectin 4 (N-terminal domain)

Chain of galectin-1 (P09382 whole entry, species assumed): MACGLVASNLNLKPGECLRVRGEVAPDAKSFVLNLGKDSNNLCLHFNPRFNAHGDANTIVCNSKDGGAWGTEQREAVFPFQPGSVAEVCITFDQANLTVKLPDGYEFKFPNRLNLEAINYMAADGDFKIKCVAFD

Row | SMILES | Kd (galectin-1) | Kd (galectin-3) | Kd [1] | Kd [2] | Kd (galectin-7) | Kd [3] | Kd [4] | Kd [5] | Kd [2, 6]
1 | O=c1oc2ccccc2cc1CO[C@H]1[C@@H](O)[C@@H](CO)O[C@@H](S[C@@H]2O[C@H](CO)[C@H](O)[C@H](OCc3cc4ccccc4oc3=O)[C@H]2O)[C@@H]1O [Compound 20, bis-{3-O-[(2H-1-benzopyran-2-on-3-yl)-methyl]-β-D-galactopyranosyl}sulfane] | 15.4 µM | 0.25 µM | 156 µM | 49 µM | 3.9 µM | 11 µM | 2.4 µM | 1.7 µM | –
2 | O=c1oc2cc(Cl)ccc2cc1CO[C@H]1[C@@H](O)[C@@H](CO)O[C@@H](S[C@@H]2O[C@H](CO)[C@H](O)[C@H](OCc3cc4ccc(Cl)cc4oc3=O)[C@H]2O)[C@@H]1O [Compound 21, bis-{3-O-[(7-chloro-2H-1-benzopyran-2-on-3-yl)-methyl]-β-D-galactopyranosyl}sulfane] | 21 µM | 4.7 µM | – | – | 61 µM | 74 µM | – | 140 µM | –
3 | O=c1oc2cc(O)ccc2cc1COC1C(O)[C@H](S[C@@H]2OC(CO)[C@H](O)C(OCc3cc4ccc(O)cc4oc3=O)C2O)OC(CO)[C@@H]1O (stereo partly drawn) [Compound 23, bis-{3-O-[(7-hydroxy-2H-1-benzopyran-2-on-3-yl)-methyl]-β-D-galactopyranosy}sulfane] | 3.9 µM | 0.076 µM | > 300 µM | – | – | 40 µM | – | 1.5 µM | 32 µM
4 | O=c1oc2ccc(O)cc2cc1COC1C(O)[C@H](S[C@@H]2OC(CO)[C@H](O)C(OCc3cc4cc(O)ccc4oc3=O)C2O)OC(CO)[C@@H]1O (stereo partly drawn) [Compound 24, bis-{3-O-[(6-hydroxy-2H-1-benzopyran-2-on-3-yl)-methyl]-β-D-galactopyranosy}sulfane] | 20 µM | 0.15 µM | > 300 µM | – | – | 140 µM | – | 8.9 µM | 180 µM
5 | O=c1oc2ccc3ccccc3c2cc1CO[C@H]1[C@@H](O)[C@@H](CO)O[C@@H](S[C@@H]2O[C@H](CO)[C@H](O)[C@H](OCc3cc4c(ccc5ccccc54)oc3=O)[C@H]2O)[C@@H]1O [Compound 25, bis-{3-O-[(3H-naphtho[2,1-b]pyran-3-on-2-yl)-methyl]-β-D-galactopyranosyl}sulfane] | 22 µM | 0.51 µM | > 300 µM | – | – | > 300 µM | – | 4.7 µM | 110 µM
6 | CC(C)(C)c1ccc2oc(=O)c(COC3C(O)[C@H](S[C@@H]4OC(CO)[C@H](O)C(OCc5cc6cc(C(C)(C)C)ccc6oc5=O)C4O)OC(CO)[C@@H]3O)cc2c1 (stereo partly drawn) [Compound 26, bis-{3-O-[(6-tert-butyl-2H-1-benzopyran-2-on-3-yl)-methyl]-β-D-galactopyranosy}sulfane] | 25 µM | 8.1 µM | > 1000 µM | – | – | 62 µM | 17 µM | 39 µM | > 1000 µM
7 | O=c1oc2ccc(Cl)cc2cc1COC1C(O)[C@H](S[C@@H]2OC(CO)[C@H](O)C(OCc3cc4cc(Cl)ccc4oc3=O)C2O)OC(CO)[C@@H]1O (stereo partly drawn) [Compound 27, bis-{3-O-[(6-chloro-2H-1-benzopyran-2-on-3-yl)-methyl]-β-D-galactopyranosy}sulfane] | 7.9 µM | 6 µM | 100 µM | – | – | 34 µM | 86 µM | > 200 µM | 430 µM
8 | O=c1oc2ccc(F)cc2cc1CO[C@H]1[C@@H](O)[C@@H](CO)O[C@@H](S[C@@H]2O[C@H](CO)[C@H](O)[C@H](OCc3cc4cc(F)ccc4oc3=O)[C@H]2O)[C@@H]1O [Compound 28, Bis-{3-O-[(6-fluoro-2H-1-benzopyran-2-on-3-yl)-methyl]-β-D-galactopyranosyl}sulfane] | 3.4 µM | 0.097 µM | > 1000 µM | – | – | 47 µM | 7.9 µM | 3.5 µM | 180 µM
9 | O=c1oc2cc(F)c(F)cc2cc1COC1C(O)[C@H](S[C@@H]2OC(CO)[C@H](O)C(OCc3cc4cc(F)c(F)cc4oc3=O)C2O)OC(CO)[C@@H]1O (stereo partly drawn) [Compound 29, bis-{3-O-[(6,7-difluoro-2H-1-benzopyran-2-on-3-yl)-methyl]-β-D-galactopyranosy}sulfane] | 1.6 µM | 0.11 µM | 220 µM | – | – | 19 µM | 2.3 µM | 3 µM | 44 µM
10 | O=c1oc2cccc(Cl)c2cc1CO[C@H]1[C@@H](O)[C@@H](CO)O[C@@H](S[C@@H]2O[C@H](CO)[C@H](O)[C@H](OCc3cc4c(Cl)cccc4oc3=O)[C@H]2O)[C@@H]1O [Compound 30, bis-{3-O-[(5-chloro-2H-1-benzopyran-2-on-3-yl)-methyl]-β-D-galactopyranosyl}sulfane] | 25 µM | 0.17 µM | > 1000 µM | – | – | 28 µM | 16 µM | 54 µM | 55 µM
11 | O=c1oc2cccc(F)c2cc1CO[C@H]1[C@@H](O)[C@@H](CO)O[C@@H](S[C@@H]2O[C@H](CO)[C@H](O)[C@H](OCc3cc4c(F)cccc4oc3=O)[C@H]2O)[C@@H]1O [Compound 31, Bis-{3-O-[(5-fluoro-2H-1-benzopyran-2-on-3-yl)-methyl]-β-D-galactopyranosyl}sulfane] | 8.7 µM | 0.061 µM | 540 µM | – | – | 28 µM | 5.5 µM | 7 µM | 46 µM
12 | O=c1oc2ccc(F)c(F)c2cc1CO[C@H]1[C@@H](O)[C@@H](CO)O[C@@H](S[C@@H]2O[C@H](CO)[C@H](O)[C@H](OCc3cc4c(F)c(F)ccc4oc3=O)[C@H]2O)[C@@H]1O [Compound 32, Bis-{3-O-[(5,6-difluoro-2H-1-benzopyran-2-on-3-yl)-methyl]-β-D-galactopyranosyl}sulfane] | 3.9 µM | 0.032 µM | > 500 µM | – | – | 41 µM | 1.5 µM | 1.1 µM | 22 µM
13 | O=c1oc2ccc(OC(F)(F)F)cc2cc1COC1C(O)[C@H](S[C@@H]2OC(CO)[C@H](O)C(OCc3cc4cc(OC(F)(F)F)ccc4oc3=O)C2O)OC(CO)[C@@H]1O (stereo partly drawn) [Compound 33, bis-{3-O-[(6-trifluoromethoxy-2H-1-benzopyran-2-on-3-yl)-methyl]-β-D-galactopyranosy}sulfane] | 84 µM | 0.95 µM | > 500 µM | – | – | 110 µM | 21 µM | 29 µM | > 500 µM
14 | Cc1ccc2cc(COC3C(O)[C@H](S[C@@H]4OC(CO)[C@H](O)C(OCc5cc6ccc(C)cc6oc5=O)C4O)OC(CO)[C@@H]3O)c(=O)oc2c1 (stereo partly drawn) [Compound 34, bis-{3-O-[(7-methyl-2H-1-benzopyran-2-on-3-yl)-methyl]-β-D-galactopyranosy}sulfane] | 200 µM | 9.4 µM | > 500 µM | – | – | > 700 µM | > 500 µM | > 200 µM | > 500 µM
15 | O=C(OC1C(O)[C@H](S[C@@H]2OC(CO)[C@H](O)C(OC(=O)c3ccc4ccccc4c3)C2O)OC(CO)[C@@H]1O)c1ccc2ccccc2c1 (stereo partly shown) [Compound 35, reference compound] | 14.7 µM | 10.7 µM | – | – | 48 µM | – | – | 2.8 µM | –
16 | O=C(NC1C(O)[C@H](S[C@@H]2OC(CO)[C@H](O)C(NC(=O)c3ccc4ccccc4c3)C2O)OC(CO)[C@@H]1O)c1ccc2ccccc2c1 (stereo partly shown) [Compound 36, reference compound] | 9.6 µM | 0.16 µM | – | – | 1.7 µM | > 100 µM | – | 0.73 µM | –
17 | CO[C@@H]1OC(CO)[C@H](O)C(O)C1O (stereo partly drawn) [methyl β-D-galactoside, reference compound] | – | – | – | – | 4800 µM | – | 5000 µM | 3400 µM | –
